Consider 27 compounds from patent US20180118721A1, “PYRIMIDINE DERIVATIVES” (Merck Patent GmbH, priority 2015, published 2018).

Assay [1] deals with T1, purified human recombinant MTH1 (human MTH1, residues 42-197) (Homo sapiens, UniProt P36639).
T1 construct: human MTH1, residues 42-197, Uniprot-ID: P36639, expressed in E. coli; made in house; host or cells: E. coli
As to the kind of experiment: MTH1 enzymatic assay (luminescence-based, PPiLight). Format: biochemical. The note with it: 6 μM 8-oxo-dGTP, Table 1, grouped. How it is done: The IC50 value was determined by a MTH1 enzymatic assay. The assay comprises the principal steps of incubating a mixture of MTH1, the compound in question at different concentrations and 8-oxo-2′-deoxyguanosine-5′-triphosphate (8-oxo-dGTP) in assay buffer. Nucleotide triphosphate hydrolysis by MTH1, i.e. decomposition of 8-oxo-2′-deoxyguanosine-5′-triphosphate, produces 8-oxo-2′-deoxyguanosine-5′-monophosphate (8-oxo-dGMP) and pyrophosphate (PPi). The amount of generated pyrophosphate (PPi) is then measured by a bioluminescent reaction. In detail: The MTH1 (human mutT homologue 1) enzymatic assay is performed as a luminescence-based 384-well assay. […] The assay buffer contains 100 mM Tris-acetate pH 7.5, 40 mM NaCl, 10 mM Mg(OAc)2, 0.005% Tween 20 and 2 mM dithiothreitol (DTT). […] Then, in a second step, the substrate 8-oxo-dGTP is added and the reaction mixture is incubated for 30 minutes at 22° C. The pharmacologically relevant assay volume is 5 PI. The final concentrations in the assay during incubation of the reaction mixture are 0.1-0.2 nM, typically 0.1 nM, MTH1 and 6 μM 8-oxo-dGTP. After incubation of the reaction mixture, the generation of pyrophosphate (PPi) as a result of nucleotide triphosphate (8-oxo-dGTP) hydrolysis by MTH1 is detected using the PPiLight inorganic pyrophosphate assay kit (Lonza) (third step). 2 to 5 μl, such as 3 to 5 μl, typically 3 or 4 μl, for instance 4 μl, of a 1:1 mixture of PPiLight converting reagent (AMP) and PPiLight detection reagent are added to the reaction mixture. In the presence of pyrophosphate, the detection reagent catalyzes the conversion of AMP to ATP. Luciferase then produces light from the newly formed ATP and luciferin. The amount of light produced is directly proportional to the amount of PPi in the sample. Following signal development for 1 h the plates are analysed in an EnVision (PerkinElmer) microplate reader using the ultra sensitive luminescence option. Data are processed employing the Genedata Screener software. In particular, IC50 values are determined in the usual manner (using the Hill Equation) by fitting a dose-response curve to the data points using nonlinear regression analysis.
Hill Equation: Y=S0+(Sinf−S0)/(1+(10^logIC50/10^c)^n); Y: luminescence signal (response), S0: activity level at zero concentration of test compound, Sinf=activity level at infinite concentration, Hill coefficient n=measure of the slope at IC50, c=concentration in logarithmic units corresponding to the values on the x-axis of the dose response curve plot

Assay [2] concerns the target T2, humanMTH1 (aminoacids 42 to 197) (Homo sapiens, UniProt P36639).
T2 construct: humanMTH1 (aminoacids 42 to 197); His tag at the N-terminus; purchased Abnova ab99390; host or cells: E. coli
As to the kind of experiment: Binding affinities and kinetics on MTH1 surfaces by surface plasmon resonance (SPR). The note with it: SPR, Biacore4000, 25° C.; Table 1, grouped; read-out: KD IC50. On the procedure:
The SPR experiments were performed using a Biacore4000 instrument. […] HumanMTH1 was immobilized on Biacore CM5 chips at 25° C. and a flow rate of 10 μL/min using amine coupling at pH 5.5 and in presence of 1 μM MSC2567771B-1 according to Biacore's standard protocol. MTH1 was applied at a concentration of 10 μg/mL and depending on the duration of the injection time immobilization levels between 500 and 2,000 RU were obtained. Sample compounds were applied in form of titration series with a doubling of concentration at each subsequent injection. In general, 10 concentrations were injected covering a dilution range of 500 fold. Before and after each of these titration series the binding capability of the surface was controlled by the injection of the positive control S-Crizotinib at a fixed concentration of 2 μM. Kinetic titration experiments were performed at 25° C. with a flow rate of 30 μL/min, a sample contact time of 90 sec and a dissociation time of 420 sec in running buffer (20 mM Tris-HCl (Tris(hydroxymethyl)-aminomethane HCl) pH 7.40, 150 mM NaCl, 5 mM MgCl2, 1 mM DTT (dithiothreitol), 0.1 mM EGTA (ethylene glycol tetraacetic acid), 0.05% Tween 20) containing 2% DMSO (dimethyl sulfoxide). Buffer injections identical to the sample injections were executed at the beginning of the successive series for the purpose of double referencing. Solvent correction cycles (eight correction points, 1.4%-2.8% DMSO) were run at the same intervals. For surface conditioning ten start-up cycles (buffer injections) were run. Data points were collected at a sample rate of 10 Hz.
Data sets were processed and analyzed using the software Biacore4000 Evaluation, version 1.0. Solvent corrected and double-referenced association and dissociation phase data were fitted to a simple 1:1 interaction model with mass transport limitations.
Measured values are indicated as KD IC50 in the Table below.

For the compound `CNc1cc(N2CCC[C@](O)(c3ccccc3)C2)nc(N)n1` (single isomer, unassigned) [Example 91], the IC50 in assay [1] is 1 to 100 nM. Moreover, the Kd in assay [2] was 1 to 100 nM.

In the case of `CNc1cc(N2CCCCC2Cc2ccccc2OC)nc(N)n1` (single isomer, unassigned) [Example 107], the IC50 in assay [1] is 1 to 100 nM. Besides, the Kd in assay [2] was 1 to 100 nM.

As for `C[C@H]1C(c2ccccc2)CCN1c1cc(NC2CC2)nc(N)n1` (stereo in doubt) [Example 54, N4-Cyclopropyl-6-((2S,3R)-2-methyl-3-phenyl-pyrrolidin-1-yl)-pyrimidine-2,4-diamine], in assay [1], the IC50 was in the range of 1 to 100 nM. Besides, the Kd in assay [2] lay within 1 to 100 nM.

Turning to `C[C@H]1[C@H](c2ccccc2)CCN1c1cc(NC2CC2)nc(N)n1` (stereo in doubt) [Example 55, N4-Cyclopropyl-6-((2S,3S)-2-methyl-3-phenyl-pyrrolidin-1-yl)-pyrimidine-2,4-diamine], the IC50 in assay [1] lay within 1 to 100 nM. Moreover, the dissociation constant Kd in assay [2] is 1 to 100 nM.

Regarding `C[C@@H]1[C@H](c2ccccc2)CCN1c1cc(NC2CC2)nc(N)n1` (stereo in doubt) [Example 56, N4-Cyclopropyl-6-((2R,3S)-2-methyl-3-phenyl-pyrrolidin-1-yl)-pyrimidine-2,4-diamine], in assay [1], the IC50 is 1 to 100 nM. In addition, the dissociation constant (Kd) in assay [2] was in the range of 1 to 100 nM.

For `C[C@@H]1C(c2ccccc2)CCN1c1cc(NC2CC2)nc(N)n1` (stereo in doubt) [Example 57, N4-Cyclopropyl-6-((2R,3R)-2-methyl-3-phenyl-pyrrolidin-1-yl)-pyrimidine-2,4-diamine], the IC50 in assay [1] fell in the range of 1 to 100 nM. The Kd in assay [2] lay in the range of 1 to 100 nM.

As to `Nc1nc(NC2CC2)cc(N2CC[C@@H](O)C2)n1` [Example 29, (R)-1-(2-Amino-6-cyclopropylamino-pyrimidin-4-yl)-pyrrolidin-3-ol], in assay [1], the IC50 was in the range of 1 to 100 nM. Further, the Kd in assay [2] lay within 1 to 100 nM.

With `Nc1nc(NC2CC2)cc(N2CCCC2c2ccccc2)n1` (stereo not drawn) [Example 30, N4-Cyclopropyl-6-(2-phenyl-pyrrolidin-1-yl)-pyrimidine-2,4-diamine], the IC50 in assay [1] fell in the range of 1 to 100 nM. The Kd in assay [2] lay within 1 to 100 nM.

`CC1CC2CCCCC2N1c1cc(NC2CC2)nc(N)n1` (stereo not drawn) [Example 31, N4-Cyclopropyl-6-(2-methyl-octahydro-indol-1-yl)-pyrimidine-2,4-diamine]: the IC50 in assay [1] lay in the range of 1 to 100 nM. In addition, the Kd in assay [2] is 1 to 100 nM.

As to `Nc1nc(NC2CC2)cc(N2CCC(O)(c3ccccc3)C2)n1` (stereo not drawn) [Example 32, 1-(2-Amino-6-cyclopropylamino-pyrimidin-4-yl)-3-phenyl-pyrrolidin-3-ol], the IC50 in assay [1] fell in the range of 1 to 100 nM. Besides, the equilibrium dissociation constant (Kd) in assay [2] was in the range of 1 to 100 nM.

As to `CC1CCCN1c1cc(NC2CC2)nc(N)n1` (stereo not drawn) [Example 33, N4-Cyclopropyl-6-(2-methyl-pyrrolidin-1-yl)-pyrimidine-2,4-diamine], the IC50 in assay [1] was 1 to 100 nM. Besides, the Kd in assay [2] fell in the range of 1 to 100 nM.

For `Nc1nc(NC2CC2)cc(N2CCCC2Cc2ccccc2)n1` (stereo not drawn) [Example 34, 6-(2-Benzyl-pyrrolidin-1-yl)-N4-cyclopropyl-pyrimidine-2,4-diamine], the IC50 in assay [1] is less than 1 nM. In addition, in assay [2], the Kd lay in the range of 1 to 100 nM.

For the compound `Nc1nc(NC2CC2)cc(N2CCc3ccccc32)n1` [Example 35, N4-Cyclopropyl-6-(2,3-dihydro-indol-1-yl)-pyrimidine-2,4-diamine], in assay [1], the IC50 was in the range of 1 to 100 nM. Also, in assay [2], the Kd lay within 1 to 100 nM.

For the compound `CC1(O)CCN(c2cc(NC3CC3)nc(N)n2)C1` (stereo not drawn) [Example 43, 1-(2-Amino-6-cyclopropylamino-pyrimidin-4-yl)-3-methyl-pyrrolidin-3-ol], in assay [1], the IC50 lay within 1 to 100 nM. Also, the Kd in assay [2] fell in the range of 1 to 100 nM.

Regarding `Nc1nc(NC2CC2)cc(N2CC[C@H](O)C2)n1` [Example 44, (S)-1-(2-Amino-6-cyclopropylamino-pyrimidin-4-yl)-pyrrolidin-3-ol], the IC50 in assay [1] was 1 to 100 nM. Further, the Kd in assay [2] lay within 1 to 100 nM.

With `C[C@@H]1C[C@H](O)CN1c1cc(NC2CC2)nc(N)n1` [Example 45, (3S,5R)-1-(2-Amino-6-cyclopropylamino-pyrimidin-4-yl)-5-methyl-pyrrolidin-3-ol], the IC50 in assay [1] was in the range of 1 to 100 nM. The dissociation constant Kd in assay [2] was in the range of 1 to 100 nM.

Take `C[C@H]1C[C@@H](O)CN1c1cc(NC2CC2)nc(N)n1` [Example 46, (3R,5S)-1-(2-Amino-6-cyclopropylamino-pyrimidin-4-yl)-5-methyl-pyrrolidin-3-ol]: the IC50 in assay [1] was less than 1 nM. Besides, in assay [2], the Kd was less than 1 nM.

In the case of `Nc1nc(NC2CC2)cc(N2CCC[C@@H]2Cc2ccccc2Cl)n1` [Example 47, 6-[(R)-2-(2-Chloro-benzyl)-pyrrolidin-1-yl]-N4-cyclopropyl-pyrimidine-2,4-diamine], the IC50 in assay [1] was less than 1 nM. In addition, the Kd in assay [2] was less than 1 nM.

Regarding `CNc1cc(N2CC(c3ccccc3)CC2=O)nc(N)n1` (stereo not drawn) [Example 96, 1-(2-Amino-6-methylamino-pyrimidin-4-yl)-4-phenyl-pyrrolidin-2-one], in assay [1], the IC50 is greater than 100 nM.

As to `CNc1cc(N2C(=O)CC[C@H]2CO)nc(N)n1` [Example 99, (S)-1-(2-Amino-6-methylamino-pyrimidin-4-yl)-5-hydroxymethyl-pyrrolidin-2-one], the IC50 in assay [1] was greater than 100 nM.

With `CNc1cc(N2CCCC2C(C)C)nc(N)n1` (stereo not drawn) [Example 101, 6-(2-Isopropyl-pyrrolidin-1-yl)-N4-methyl-pyrimidine-2,4-diamine-formate], in assay [1], the IC50 was less than 1 nM.

Take `CNc1cc(N2CCCC2C2CCCC2)nc(N)n1` (stereo not drawn) [Example 102, 6-(2-Cyclopentyl-pyrrolidin-1-yl)-N4-methyl-pyrimidine-2,4-diamine]: the IC50 in assay [1] was less than 1 nM.

For `CNc1cc(N2CCC(c3ccccc3)C2=O)nc(N)n1` (stereo not drawn) [Example 103, 1-(2-Amino-6-methylamino-pyrimidin-4-yl)-3-phenyl-pyrrolidin-2-one], the IC50 in assay [1] fell in the range of 1 to 100 nM.

Consider `Nc1nc(NC2CC2)cc(N2C(=O)CCC2c2ccc(Cl)cc2)n1` (stereo not drawn) [Example 104, 1-(2-Amino-6-cyclopropylamino-pyrimidin-4-yl)-5-(4-chloro-phenyl)-pyrrolidin-2-one], for which the IC50 in assay [1] is greater than 100 nM.

Turning to `CNc1cc(N2CCCC2c2ccsc2)nc(N)n1` (stereo not drawn) [Example 111, N4-Methyl-6-(2-thiophen-3-yl-pyrrolidin-1-yl)-pyrimidine-2,4-diamine], the IC50 in assay [1] was less than 1 nM.

On to `Nc1nc(NC2CC2)cc(N2CCCC2C(=O)NCCc2ccc(S(=O)(=O)F)cc2)n1` (stereo not drawn) [Example 119, 4-(2-{[1-(2-Amino-6-cyclopropylamino-pyrimidin-4-yl)-pyrrolidine-2-carbonyl]-amino}-ethyl)-benzenesulfonyl fluoride], for which the IC50 in assay [1] fell in the range of 1 to 100 nM.

Regarding `Cc1ccc(CCNc2cc(N3CCC(F)(F)C3)nc(N)n2)cc1` [Example 145, 6-(3,3-Difluoro-pyrrolidin-1-yl)-N4-(2-p-tolyl-ethyl)-pyrimidine-2,4-diamine-formiate], in assay [1], the IC50 was in the range of 1 to 100 nM.
